# Values quoted from earlier work, collected in patent US20250066504A1, “USE OF OREGOVOMAB AND PARP INHIBITORS FOR TREATMENT OF OVARIAN CANCER” (CANARIABIO INC., priority 2022, published 2025).
# “And” between values parts separate entries of the source, which are not always exact repeats. Equal entries are not always repeated. Where two headings read alike, the source gives them in different places.
# What was measured:
# [1] = system: BRCA1-mutant breast cancer (MDA-MB-436)
# [2] = system: BRCA2-mutant pancreatic cancer (CAPAN-1)
# [3] = in vivo
# P-glycoprotein (P-gp) = P-glycoprotein (P-gp) (Homo sapiens, UniProt P08183)
# [4] = system: patient-derived Ewing sarcoma; details: mouse, in vivo
# [5] = system: patient-derived ovarian and breast cancer xenograft; details: in vivo
# [6] = for grade 3/4 thrombocytopenia rate in the first 30 days: classification tree model
# BRCA1-mutant xenograft = details: dosed orally
# [7] = not given; remark: listed apart in the source
# [8] = 300 mg dose
# [9] = system: platinum-sensitive, recurrent ovarian cancer
# [10] = system: platinum resistant disease
# [11] = system: platinum-sensitive disease; details: added to gemcitabine and carboplatin
# [12] = system: platinum-sensitive recurrent ovarian cancer; details: added to standard chemotherapy, followed by maintenance until progression
# [13] = human, in vivo
# CA-125-expressing tumors = details: mouse, in vivo
# [14] = 100 times the estimated human dose equivalent (2 mg/60 kg body weight)
# [15] = system: immune suppressive malignancy; details: immune initiation alone
# [16] = normal rats
# tumor = details: tumor-bearing mice
# [17] = system: normal human organs and tissues
# [18] = normal rabbits
# [19] = 100 times the estimated human dose equivalent (2 mg/60 kg body weight); remark: listed apart in the source
# [20] = system: adenocarcinomas expressing the CA125 antigen
# [21] = human, in vivo; remark: listed apart in the source
# [22] = system: advanced epithelial ovarian, adnexal, or primary peritoneal cancer, Stage III and Stage IV; details: K-M method
# [23] = lower baseline platelets (<180×10^9/L)
# [24] = HRDpos (Within non-gBRCAmut Cohort)
# [25] = Non-gBRCAmut Cohort (Regardless of HRD Status)
# Sequence of P-glycoprotein (P-gp) (P08183 whole entry): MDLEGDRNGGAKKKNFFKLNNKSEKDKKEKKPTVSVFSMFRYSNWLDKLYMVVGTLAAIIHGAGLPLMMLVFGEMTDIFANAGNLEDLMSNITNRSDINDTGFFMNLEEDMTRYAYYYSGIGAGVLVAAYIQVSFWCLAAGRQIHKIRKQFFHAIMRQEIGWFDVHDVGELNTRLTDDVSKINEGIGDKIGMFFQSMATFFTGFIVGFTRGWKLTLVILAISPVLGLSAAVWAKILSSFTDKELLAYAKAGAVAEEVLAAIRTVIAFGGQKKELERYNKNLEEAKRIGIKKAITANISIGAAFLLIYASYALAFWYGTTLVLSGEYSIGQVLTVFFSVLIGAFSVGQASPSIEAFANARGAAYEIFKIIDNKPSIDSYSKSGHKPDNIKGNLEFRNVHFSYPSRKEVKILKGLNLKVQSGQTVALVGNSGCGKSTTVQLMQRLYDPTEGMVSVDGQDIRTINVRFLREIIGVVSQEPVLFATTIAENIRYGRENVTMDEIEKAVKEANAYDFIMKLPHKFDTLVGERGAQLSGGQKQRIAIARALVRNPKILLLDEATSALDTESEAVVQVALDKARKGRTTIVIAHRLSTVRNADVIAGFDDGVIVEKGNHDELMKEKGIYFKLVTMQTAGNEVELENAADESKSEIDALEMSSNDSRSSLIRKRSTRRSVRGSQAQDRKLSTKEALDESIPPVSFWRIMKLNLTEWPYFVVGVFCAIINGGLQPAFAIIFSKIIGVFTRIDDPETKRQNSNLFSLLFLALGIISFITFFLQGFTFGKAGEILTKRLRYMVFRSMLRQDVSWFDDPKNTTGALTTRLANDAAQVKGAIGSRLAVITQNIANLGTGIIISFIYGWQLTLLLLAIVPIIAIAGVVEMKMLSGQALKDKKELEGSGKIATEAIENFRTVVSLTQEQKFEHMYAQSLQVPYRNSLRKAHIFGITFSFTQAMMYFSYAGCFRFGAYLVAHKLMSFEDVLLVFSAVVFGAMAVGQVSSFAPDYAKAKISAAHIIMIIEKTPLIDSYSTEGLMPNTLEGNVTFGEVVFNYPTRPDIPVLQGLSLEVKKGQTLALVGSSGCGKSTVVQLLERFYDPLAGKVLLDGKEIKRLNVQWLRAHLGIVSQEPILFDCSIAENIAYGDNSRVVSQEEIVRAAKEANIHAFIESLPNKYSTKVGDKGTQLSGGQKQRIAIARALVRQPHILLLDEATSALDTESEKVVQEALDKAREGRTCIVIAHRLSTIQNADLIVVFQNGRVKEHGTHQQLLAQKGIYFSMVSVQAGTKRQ
compound,measurement,setting,value
NC(=O)c1cccc2cn(-c3ccc([C@@H]4CCCNC4)cc3)nc12 [Niraparib],ORR,"ovarian cancer; 98 subjects in the HRD-positive cohort, RECIST v1.1, 300 mg once daily",24%
same,Estimated median DOR,ovarian cancer; HRD-positive cohort,8.3 months
same,new safety signals,ovarian cancer; in vivo,No new safety signals
same,subjects achieving an overall response,ovarian cancer; primary efficacy population (13 of 47),28%
same,ORR,"ovarian cancer; tBRCAm ovarian cancer, platinum-refractory disease (3/16)",19%
same,ORR,"ovarian cancer; tBRCAm ovarian cancer, platinum-resistant disease (6/21)",29%
same,ORR,"ovarian cancer; tBRCAm ovarian cancer, platinum-sensitive disease (7/18)",39%
same,antitumor activity,[1],strong antitumor activity
same,antitumor activity,[2],strong antitumor activity
same,effect of food on absorption,[3],does not significantly affect
same,substrate for P-gp,P-glycoprotein (P-gp),relatively poor substrate
same,incidence of MDS/AML,5 of 367,1.4%
same,anemia (all grades),"human, in vivo",49%
same,constipation (all grades),"human, in vivo",40%
same,decreased platelet count (all grades),"human, in vivo",20%
same,fatigue (all grades),"human, in vivo",46%
same,nausea (all grades),"human, in vivo",74%
same,neutropenia (all grades),"human, in vivo",18%
same,on-treatment deaths,"human, in vivo",no on-treatment deaths
same,subjects with at least 1 treatment-emergent adverse event (TEAE),"human, in vivo",All 367
same,thrombocytopenia (all grades),"human, in vivo",46%
same,vomiting (all grades),"human, in vivo",34%
same,TEAEs leading to dose reduction,overall safety population,69%
same,TEAEs leading to treatment discontinuation,overall safety population,15%
same,TEAEs leading to treatment interruption,overall safety population,67%
same,incidence of Grade 3 or 4 TEAEs,overall safety population,74%
same,incidence of serious adverse events (SAEs),overall safety population,30%
same,antitumor activity,[4],strong antitumor activity
same,response in patient-derived xenograft models,[5],demonstrated response in both BRCAmut and BRCA wild-type tumors
same,grade 3/4 thrombocytopenia rate in the first 30 days,"[6]; baseline body weight <77 kg or baseline platelet count <150,000 μL",approximately 30%
same,grade 3/4 thrombocytopenia rate in the first 30 days,"[6]; baseline body weight <77 kg or baseline platelet count <150,000 μL, listed as niraparib",35.4% and ~30%
same,incidence of grade 3 or 4 thrombocytopenia in the first 30 days,[6]; baseline body weight ≥77 kg,14%
same,incidence of grade 3 or 4 thrombocytopenia in the first 30 days,[6]; body weight <58 kg,43%
same,subjects with a dose reduction,[6]; body weight <58 kg,approximately 80%
same,grade 3/4 thrombocytopenia rate in the first 30 days,"[6]; body weight >77 kg and platelet count >150,000 μL",11.5%
same,treatment discontinuations,[6]; highest quartile (≥77 kg),10%
same,frequency of thrombocytopenia Grade ≥1,[6]; [23],76%
same,frequency of thrombocytopenia Grade ≥3,[6]; [23],45%
same,treatment discontinuations,[6]; lower body weight (<58 kg quartile),24%
same,subjects with a dose reduction,[6]; weight greater than or equal to 77 kg,59%
same,synthetic lethality,cells with HRD; cells with HRD,induce synthetic lethality
same,effect on normal DNA repair mechanisms,cells with HRD; pre-clinical models,inhibit normal DNA repair mechanisms
same,reduction in tumor weight compared with control,BRCA1-mutant xenograft,> 90%
same,tumor response,BRCA1-mutant xenograft,tumor regression
same,correlation between exposure level (plasma concentration) and QTc changes (ΔQTcF),[7]; in vivo,no correlation
same,"clinically significant abnormal ECG changes, including QTc interval prolongation, attributed to niraparib",[7]; n=26,no reports
same,QT interval,[7]; therapeutic dose,did not prolong
same,"bone marrow suppression (neutropenia, thrombocytopenia, and anemia), subjects",[8],20-40%
same,"hypertension/hypertensive crisis, subjects",[8]; treatment for up to two years,9%
same,HR (niraparib:placebo),[9]; [24],0.38
same,Median PFS,[9]; [24],12.9 months
same,HR (niraparib:placebo),[9]; [25],0.45
same,Median PFS,[9]; [25],9.3 months
same,Median PFS,"[9]; gBRCAmut Cohort, 300 mg QD",21.0 months
same,HR (niraparib:placebo),"[9]; gBRCAmut Cohort, stratified Cox proportional hazards model",0.27
same,efficacy at the reduced dose,[9]; retrospective analyses from NOVA,did not compromise efficacy
same,HR,[9]; subjects with HRDneg tumors,0.58
same,Median PFS,[9]; subjects with HRDneg tumors,6.9 months
bevacizumab,PFS,"[10]; added to pegylated liposomal doxorubicin, weekly paclitaxel, or topotecan",improved PFS
same,OS,[10]; added to single agent chemotherapy,not OS
same,OS,[11],no difference in OS
same,PFS,[11],improved PFS
same,median overall survival,[12],improved the median overall survival
O=C(c1cc(Cc2n[nH]c(=O)c3ccccc23)ccc1F)N1CCN(C(=O)C2CC2)CC1 [olaparib],myelodysplastic syndrome (MDS) and acute myeloid leukemia (AML),[13],have been observed
Oregovomab,ascites production,CA-125-expressing tumors,inhibited ascites production
same,survival,CA-125-expressing tumors,long-term survival
same,tumor size,CA-125-expressing tumors,reduced tumor size
same,acute toxicity,[14],lack of significant acute toxicity
same,effect on the clinical course of disease,[15],insufficient to alter the clinical course of disease
same,humoral response,[16],strong humoral response
same,cellular responses,tumor,evident
same,humoral response,tumor,strong humoral response
same,survival,tumor; compared to controls,increase in survival
same,tumor size,tumor; compared to controls,decrease in tumor size
same,cross-reactivity with selected normal human organs and tissues,[17],does not show any significant cross-reactivity
same,humoral response,[18],strong humoral response
same,acute toxicity,[19],lack of significant acute toxicity
same,binding to adenocarcinomas expressing the CA125 antigen,[20],selective binding
same,affinity of binding to CA125,CA125,1.16e+10 M⁻¹
same,binding force to cancer antigen 125 (CA-125),CA125; during blood circulation,less than nano units
same,apparent terminal half-life (t1/2z),[21],around 33 hours
same,clearance on repeat administration,[21],accelerated
same,dose of the radiotracer eliminated in the urine,[21],less than 50%
same,mean residence time (MRT),[21],about 45 hours
same,plasma clearance,[21],around 110 mL/minute
paclitaxel/carboplatin,OS (median),[22],43.2 months
same,PFS (median),[22],12.2 months
same,time to clinical progression (TTCP) (median),[22],13.6 months
